Experimental data published in US20210285955A1, “METHODS AND REAGENTS FOR ANALYZING PROTEIN-PROTEIN INTERFACES” (Revolution Medicines, Inc., priority 2017, published 2021).

Assays:
Assay type in all cases: binding
KRASGTP/S39C lite = target: T1, KRASGTP/S39C lite (Homo sapiens, UniProt P01116, C118S/C51S/C80L/G12V/S39C); assay: Conjugate formation (cross-linking) assessed by SDS-PAGE
T1 construct: KRASGTP/S39C lite (in house; residues 1-169 containing G12V/S39C/C51S/C80L/C118S); made in house
Procedure: General Protocol: This protocol describes a method for the formation of target protein-compound conjugates.
(§1) Experimental Protocol: A 1:2 molar ratio of target protein and compound are mixed together in 12.5 mM HEPES pH 7.4, 75 mM NaCl buffer containing 2% DMSO. The reaction is incubated at 37° C. for 30 min, followed by overnight incubation at room temperature. Cross-linking efficiency is assessed by SDS-PAGE gel. Conjugates migrate slower than non-cross-linked target protein. For thiol reactive compounds, the Cys specific attachment of the compound to the target protein can be further confirmed by SDS-PAGE after the addition of 100 mM DTT to the reaction mixture, which reduces the conjugate back into its components.
Experimental Protocol: A 1:2 molar ratio of KRASGTP/S39C lite and C2-FK506 are mixed together in 12.5 mM HEPES pH 7.4, 75 mM NaCl buffer containing 2% DMSO. The reaction is incubated at 37° C. for 30 min, followed by overnight incubation at room temperature. Cross-linking efficiency is assessed by SDS-PAGE gel. Attachment of C2-FK506 to Cysteine 39 on KRASGTP/S39C lite is also assessed by incubation of the reaction mixture with 100 mM DTT.

[1] = target: T2, KRASGTP/S39C lite and FKBP12 (Homo sapiens, UniProt P01116+P62942, C118S/C51S/C80L/G12V/S39C); assay: Ternary complex formation by SEC and SDS-PAGE; conditions: 1:2:2 compound:FKBP12:KRAS, SEC profile and SDS-PAGE of elution peaks
T2 construct: KRASGTP/S39C lite (in house; residues 1-169 containing G12V/S39C/C51S/C80L/C118S); made in house
Procedure: (§2) A 1:2:2 molar ratio of compound, presenter protein, and target protein are mixed together in 12.5 mM HEPES pH 7.4, 75 mM NaCl buffer containing 2% DMSO. The reaction is incubated at 37° C. for 30 min, followed by overnight incubation at room temperature. Pure complex is isolated by Size Exclusion Chromatography (SEC) purification. The reaction mixture is directly injected on a Superdex 75 column (CV 120 mL) pre-equilibrated with buffer containing 12.5 mM HEPES pH 7.4, 75 mM NaCl. Complex elutes at a higher molecular weight than unreacted target protein and presenter protein. To confirm presence of complex in the elution peak, samples are assessed by SDS-PAGE.
Experimental Protocol: A 1:2:2 molar ratio of C2-Holt, FKBP12, and KRASGTP/S39C lite are mixed together in 12.5 mM HEPES pH 7.4, 75 mM NaCl buffer containing 2% DMSO. The reaction is incubated at 37° C. for 30 min, followed by overnight incubation at room temperature. Pure complex is isolated by Size Exclusion Chromatography (SEC) purification. The reaction mixture is directly injected on a Superdex 75 column (CV 120 mL) pre-equilibrated with buffer containing 12.5 mM HEPES pH 7.4, 75 mM NaCl. […] To confirm the presence of KRASGTP/S39C lite and FKBP12 in the elution peak, samples are also assessed by SDS-PAGE.

[2] = target: T3, PTP1BS187C lite and FKBP12 (Homo sapiens, UniProt P18031+P62942, C121S/C32S/C92V/S187C); assay: Ternary complex formation by SEC and SDS-PAGE; conditions: 1:3:3 compound:FKBP12:PTP1B, SEC profile and SDS-PAGE of elution peaks
T3 construct: (in house; residues 1-293 containing C32S/C92V/C121S/S187C); made in house
Procedure: as §2
Equipment: Mini-PROTEAN TGX Gel (Bio-Rad), Superdex 75 (GE Healthcare, CV 120 mL) Experimental Protocol: A 1:3:3 molar ratio of C3SLF, FKBP12, and PTPIBswc lite are mixed together in 12.5 mM HEPES pH 7.4, 75 mM NaCl buffer containing 4% DMSO. The reaction is incubated at 37° C. for 30 min, followed by overnight incubation at room temperature. Pure complex is isolated by Size Exclusion Chromatography (SEC) purification. The reaction mixture is directly injected on a Superdex 75 column (CV 120 mL) pre-equilibrated with buffer containing 12.5 mM HEPES pH 7.4, 75 mM NaCl. […] To confirm the presence of PTP1BS187C lite and FKBP12 in the elution peak, samples are also assessed by SDS-PAGE. […]

KRASGTP/G12C [3] = target: T4, KRASGTP/G12C (Homo sapiens, UniProt P01116+P62942, G12C); assay: Presenter dependency of disulfide cross-linking by mass spectrometry; conditions: 2 μM KRAS, 10 μM ligand, 4 hours room temperature, MS
T4 construct: KRASGTP/G12C (in-house, residues 1-169); made in house
Procedure: This protocol describes methods to analyzing cross-linking efficiency using mass spectrometry and gel shift assay in effort to assess the presenter dependency of conjugate formation.
Experimental protocol: In order to follow the kinetics of disulfide crosslinking reactions, Agilent 6230 TOF-LC/MS and Agilent 1260 HPLC instruments employing a AdvanceBio RP-mAb C4 column (2.1×100 mm, 3.5 μm) and equipped with an auto-sampler were used. HPLC grade acetonitrile and water (each containing 1.0 mM ammonium formate and 1% formic acid by volume) were used as mobile phase with the following ramp: 0.6 ml/min flow rate, water:acetonitrile=95:5 from 0.0 to 13.0 min ramping to water:acetonitrile=5:95 from 13.0 to 17.0 min. Total time=17.0 min.
All crosslinking reactions were performed in 1.5 mL amber colored glass vials equipped with 0.5 mL glass inserts. A water-soluble peptide (SEQ ID NO: 1: […]) was employed as an internal standard. Although the actual sequence of the internal standard is inconsequential, choice of amino acid residues were critical to avoid interference in the crosslinking assays. […] All reactions and standard solutions were prepared in HEPES (pH 7.4, 1.0 mM MgCl2) buffer.
Prior to every reaction, a standard curve was obtained for the individual components using a series of standard solutions (an example of standard curve analysis for FKBP12 is shown in Table 3 below). Using the data from standard curve, μmol of protein samples were plotted against the ratio of areas (sample:std) and a linear fit (y=mx+c) was employed to obtain the slope and intercept. The value of slope and intercept involved in these standard curves were accounted for during evaluation of the substrate and product concentration before and during the course of the reaction. For every substrate/product, an initial injection was followed up by a blank injection to verify presence of any residual protein/reagents. Based on this analysis the sequence of auto-sampler can be adjusted to included appropriate number of blank injections for removal of residual components, if any. The MS spectra were analyzed using Agilent MassHunter v B.07.0 software.
In a representative experiment to assess the presenter dependency of ligand cross-linking on the target protein, KRASGTP/G12C and either C3 or C4SLF ligand were incubated in the presence or absence of FKBP12 at concentrations of 2 μM KRAS, 10 μM FKBP12, 10 μM C3 or C4SLF for 4 hours at room temperature in 12.5 mM HEPES pH 7.4, 75 mM NaCl, 1 mM MgCl2, 3% DMSO. Analysis of the amount of KRAS undergoing disulfide cross-linking with the ligand using the method above.

KRASGTP/G12C [4] = target: T4, KRASGTP/G12C; assay: Cross-linking gel shift assay (12% SDS-PAGE); conditions: 60 μM KRAS, 180 μM FKBP12, 180 μM ligand, quenched by MMTS
Procedure: In parallel to mass spectrometry analysis, cross-linking reactions with C3 or […] were subjected to gel shift assay using 12% SDS-PAGE in the presence or absence of FKBP12 at the same experimental condition described above except that cross-linking reactions were set up at higher concentrations (60 μM KRAS, 180 μM FKBP12, and 180 μM C3 or […]) and they were quenched by MMTS to terminate the reaction.

[5] = target: T5, KRASGDP/S39C lite and CypAC52S (Homo sapiens, UniProt P01116+P62937, C118S/C51S/C52S/C80L/G12V/S39C); assay: Ternary complex formation by SEC and SDS-PAGE; conditions: 1:2:2 compound:CypAC52S:KRAS, SEC profile and SDS-PAGE of elution peaks
T5 construct: KRASGDP/S39C lite (in house; residues 1-169 containing G12V/S39C/C51S/C80L/C118S); made in house
Procedure: as §2
Equipment: Mini-PROTEAN TGX Gel (Bio-Rad), Superdex 75 (GE Healthcare, CV 120 mL) Experimental Protocol: A 1:2:2 molar ratio of SFAC4DS, CypAC52S, and KRASGDP/S39C lite are mixed together in 12.5 mM HEPES pH 7.4, 75 mM NaCl buffer containing 2% DMSO. The reaction is incubated at 37° C. for 30 min, followed by overnight incubation at room temperature. Pure complex is isolated by Size Exclusion Chromatography (SEC) purification. The reaction mixture is directly injected on a Superdex 75 column (CV 120 mL) pre-equilibrated with buffer containing 12.5 mM HEPES pH 7.4, 75 mM NaCl. […] To confirm the presence of KRASGDP/S39C lite and CypAC52S in the elution peak, samples are also assessed by SDS-PAGE.

CypAC52S = target: T6, CypAC52S (Homo sapiens, UniProt P62937, C52S); assay: Presenter cross-linking assessed by SDS-PAGE; conditions: CypA with Cysteine 52 mutated to Serine
T6 construct: made in house
Procedure: (§3) Experimental Protocol: A 1:2 molar ratio of KRASGTP/G12C lite and SFAX9DS are mixed together in 12.5 mM HEPES pH 7.4, 75 mM NaCl buffer containing 2% DMSO. The reaction is incubated at 37° C. for 30 min, followed by overnight incubation at room temperature. Cross-linking efficiency is assessed by SDS-PAGE gel. […] Cysteine 52 as a reactive Cysteine on CypA and was mutated to Serine to abrogate presenter cross-linking.

Wild-type CypA = Wild-type CypA (Homo sapiens, UniProt P62937); assay: Presenter cross-linking assessed by SDS-PAGE
Procedure: as §3

KRASGTP/G12C lite = target: T7, KRASGTP/G12C lite (Homo sapiens, UniProt P01116, C118S/C51S/C80L/G12C); assay: Conjugate formation (cross-linking) assessed by SDS-PAGE; conditions: 1:2 molar ratio protein:compound, 37° C. 30 min then overnight room temperature
T7 construct: KRASGTP/G12C lite (in house; residues 1-169 containing G12C/C51S/C80L/C118S); made in house
Procedure: as §1, §3

T3 sequence (P18031 1-293 C32S/C92V/C121S/S187C limits assumed): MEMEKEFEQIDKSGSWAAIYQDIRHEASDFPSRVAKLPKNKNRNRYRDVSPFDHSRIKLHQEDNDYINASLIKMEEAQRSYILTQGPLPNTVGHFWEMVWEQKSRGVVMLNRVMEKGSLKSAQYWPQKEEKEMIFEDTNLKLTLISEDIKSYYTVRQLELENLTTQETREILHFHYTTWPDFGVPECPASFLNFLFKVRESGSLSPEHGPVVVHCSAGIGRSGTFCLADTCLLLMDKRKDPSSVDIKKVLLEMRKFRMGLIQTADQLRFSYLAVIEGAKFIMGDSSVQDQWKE
T3 sequence (P62942 whole entry, the tested form may be a part): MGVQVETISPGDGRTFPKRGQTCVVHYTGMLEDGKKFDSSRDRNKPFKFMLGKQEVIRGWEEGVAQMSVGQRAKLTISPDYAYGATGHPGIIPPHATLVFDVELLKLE
T6 sequence (P62937 whole entry C52S): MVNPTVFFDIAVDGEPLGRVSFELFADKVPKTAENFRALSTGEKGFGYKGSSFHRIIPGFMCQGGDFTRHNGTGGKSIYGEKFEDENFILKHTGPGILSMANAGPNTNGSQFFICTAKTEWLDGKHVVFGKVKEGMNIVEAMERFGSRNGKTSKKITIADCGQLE
Wild-type CypA, sequence (P62937 whole entry): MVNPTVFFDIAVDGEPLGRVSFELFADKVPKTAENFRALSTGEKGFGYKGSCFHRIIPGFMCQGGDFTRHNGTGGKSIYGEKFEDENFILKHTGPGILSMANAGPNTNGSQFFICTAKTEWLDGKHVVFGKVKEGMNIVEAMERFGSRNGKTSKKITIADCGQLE

**Q.** How did the Cross-linking efficiency (KRASGTP/S39C lite; 1:2 molar ratio protein:compound, 37° C. 30 min then overnight room temperature, SDS-PAGE) turn out when CO[C@H]1C[C@@H](C)C/C(C)=C/[C@@H](CCCC(=O)NCCSSc2ccccn2)C(=O)C[C@H](O)[C@@H](C)[C@@H](/C(C)=C/[C@@H]2CC[C@@H](O)[C@H](OC)C2)OC(=O)[C@@H]2CCCCN2C(=O)C(=O)[C@]2(O)O[C@H]1[C@@H](OC)C[C@H]2C [Compound C2-FK506] was run?
**A.** cross-links efficiently

**Q.** What about the “Cys specific attachment of the compound” value (KRASGTP/S39C lite; SDS-PAGE after 100 mM DTT) of the same compound?
**A.** specific for Cysteine 39

**Q.** CCC(C)(C)C(=O)C(=O)N1CCCC[C@H]1C(=O)OCCCC(=O)NCCSSc1ccccn1 [Compound C2Holt] was tested. Which “Formation of ternary complex” value [1] did it give?
**A.** confirm the formation

**Q.** Which “Formation of ternary complex” value [2] does the source give for CCC(C)(C)C(=O)C(=O)N1CCCC[C@H]1C(=O)O[C@H](CCc1ccc(OC)c(OC)c1)c1cccc(NC(=O)CCSSc2ccccn2)c1 [Compound C3SLF] here?
**A.** confirm the formation

**Q.** What about the “% xlink to KRAS” value (KRASGTP/G12C [3]; FKBP12 + (10 μM)) of the same compound?
**A.** 47.5%

**Q.** What about the “% xlink to KRAS” value (KRASGTP/G12C [3]; FKBP12 − (absent)) of the same compound?
**A.** 9.6%

**Q.** What about the “Ligand cross-linking efficiency in presence vs absence of FKBP12” value (KRASGTP/G12C [4]) of the same compound?
**A.** boosted significantly

**Q.** How did the “% xlink to KRAS” value (KRASGTP/G12C [3]; FKBP12 + (10 μM)) turn out when CCC(C)(C)C(=O)C(=O)N1CCCC[C@H]1C(=O)O[C@H](CCc1ccc(OC)c(OC)c1)c1cccc(NC(=O)CCCSSc2ccccn2)c1 [Compound C4SLF, (R)-3-(3,4-dimethoxyphenyl)-1-(3-(4-(pyridin-2-yldisulfanyl)butanamido)phenyl)propyl (S)-1-(3,3-dimethyl-2-oxopentanoyl)piperidine-2-carboxylate] was run?
**A.** 69.8%

**Q.** What about the “% xlink to KRAS” value (KRASGTP/G12C [3]; FKBP12 − (absent)) of the same compound?
**A.** 7.0%

**Q.** And the “Ligand cross-linking efficiency in presence vs absence of FKBP12” value (KRASGTP/G12C [4])?
**A.** boosted significantly

**Q.** Which “Formation of ternary complex” value [5] does the source give for COC(=O)[C@@H]1CCCN(C(=O)[C@H](Cc2cccc(O)c2)NC(=O)[C@@H](NC(=O)CCCSSc2ccccn2)C(C)C)N1 [SFAC4DS] here?
**A.** confirm the formation

**Q.** How did the “Cross-linking to presenter protein” value (CypAC52S) turn out when COC(=O)[C@@H]1CCCN(C(=O)[C@H](Cc2cccc(O)c2)NC(=O)[C@@H](NC(=O)CCOCCOCCSSc2ccccn2)C(C)C)N1 [SFAX9DS] was run?
**A.** does not cross-link

**Q.** And the “Cross-linking to presenter protein” value (Wild-type CypA)?
**A.** also cross-linked

**Q.** What about the Cross-linking efficiency (KRASGTP/G12C lite) of the same compound?
**A.** cross-links efficiently
